Reference: patent US5716953A, “1,5-benzodiazepine derivatives” (Glaxo Wellcome S.p.A., priority 1993, dated 1998)
Structures can show the parent of a compound that is named as a salt. Where two headings read alike, the source gives them in different places.

How the values were obtained:
CCK-A receptor = CCK-A receptor binding (Pancreas Assay)
Experimental: Exp & Ther. 261, 1056-1063, 1992.
(§1) The binding affinity of the compounds of the invention for the CCK-A receptor (Pancreas Assay) and CCK-B receptor (guinea pig cortex assay) was determined using the procedure of G Dal Forno et al J. Pharmacol. Exp & Ther. 261-1056-1063.

CCK-B receptor = molecular target: T1, CCK-B receptor (Cavia porcellus, UniProt H0VZC5); assay: CCK-B receptor binding (guinea pig cortex assay)
T1 construct: CCK-B receptor (guinea pig cortex assay); from tissue; host or cells: guinea pig cortex
T1 sequence (H0VZC5 1-426): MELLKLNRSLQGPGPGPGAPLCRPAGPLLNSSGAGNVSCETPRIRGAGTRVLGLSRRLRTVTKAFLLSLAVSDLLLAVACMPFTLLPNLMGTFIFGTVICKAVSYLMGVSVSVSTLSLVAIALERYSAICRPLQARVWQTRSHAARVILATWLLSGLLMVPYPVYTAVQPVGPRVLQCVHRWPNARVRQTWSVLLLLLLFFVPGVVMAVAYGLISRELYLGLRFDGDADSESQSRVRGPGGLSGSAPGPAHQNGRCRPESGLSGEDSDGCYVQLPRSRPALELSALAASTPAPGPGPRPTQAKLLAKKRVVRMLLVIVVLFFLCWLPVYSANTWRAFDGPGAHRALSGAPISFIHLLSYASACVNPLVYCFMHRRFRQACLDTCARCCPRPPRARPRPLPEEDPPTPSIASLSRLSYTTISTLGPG
Experimental: The greater affinity of the compounds of the invention for the CCK-B receptor over the CCK-A receptor has also been established using the CCK receptor binding assays described by G Dal Forno et al., J. Pharmcol. Exp & Ther. 261, 1056-1063, 1992.
as §1, with “261-1056-1063. The pKi values determined with representative compounds of invention were as follows: […]” for “261-1056-1063.”

mice = assay: oral administration to mice, observation of untoward effects at anxiolytic doses; assay type: in vivo; settings: orally; for untoward effects: at doses at which the compounds exhibit anxiolytic activity
Source text: (§2) The compounds of the invention are essentially non-toxic and therapeutically useful doses.

rats = assay: oral administration to rats, observation of untoward effects at anxiolytic doses; assay type: in vivo; settings: orally
Source text: as §2

[1] = CCK-B receptor, guinea pig cortex assay, read-out: pKi CCK-B (converted)

SMILES: O=C(Nc1ccccc1)NC1C(=O)N(CCN2CCOCC2)c2ccccc2N(CC23CC4CC(CC(C4)C2)C3)C1=O (single isomer, unassigned) [Example 11 (isomer 1), N-[1-(1-Adamantylmethyl)-2,4-dioxo-5-[2-(4-morpholino)ethyl]-2,3,4,5-tetrahydro-1H-benzodiazepin-3-yl]-N'-phenylurea Isomer 1]
- pKi CCK-A (CCK-A receptor): 5.69
- Ki (CCK-B receptor; [1]): 0.214 nM
- anxiolytic activity (mice): exhibit anxiolytic activity
- untoward effects (mice): no untoward effects were observed

SMILES: O=C(Nc1ccccc1)NC1C(=O)N(CCN2CCOCC2)c2ccccc2N(CC23CC4CC(CC(C4)C2)C3)C1=O (single isomer, unassigned; (-)) [Example 18, (-)[1-(1-Adamantylmethyl)-2,4-dioxo-5-[2-(4-morpholino)ethyl]-2,3,4,5-tetrahydro-1H-1,5-benzodiazepin-3-yl]-N'-phenylurea, hydrochloride salt]
- anxiolytic activity (mice): exhibit anxiolytic activity
- untoward effects (mice): no untoward effects were observed
- anxiolytic activity (rats): exhibit anxiolytic activity
- untoward effects (rats; at doses at which the compounds exhibit anxiolytic activity): no untoward effects were observed

SMILES: CC(C)CCN1C(=O)C(NC(=O)Nc2ccccc2)C(=O)N(CCN2CCOCC2)c2ccccc21 (stereo not shown) [Example 1, N-[2,4-Dioxo-1-(3-methyl-1-butyl)-5-[2-(4-morpholinyl)ethyl]-2,3,4,5-tetrahydro-1H-1,5-benzodiazepin-3-yl]-N'-phenylurea]
- pKi CCK-A (CCK-A receptor): 6.17
- Ki (CCK-B receptor; [1]): 2.88 nM

SMILES: CC(C)CCN1C(=O)C(NC(=O)Nc2ccccc2)C(=O)N(CCN2CCCCC2)c2ccccc21 (stereo not shown) [Example 2, N-[2,4-Dioxo-1-(3-methyl-1-butyl)-5-[2-(1-piperidino)ethyl]-2,3,4,5-tetrahydro-1H-1,5-benzodiazepin-3-yl]-N'-phenylurea]
- pKi CCK-A (CCK-A receptor): 5.69
- Ki (CCK-B receptor; [1]): 6.76 nM

SMILES: CC(C)CCN1C(=O)C(NC(=O)Nc2ccccc2)C(=O)N(CCN(C)C)c2ccccc21 (stereo not shown) [Example 3, N-[5-[2-(Dimethylamino)ethyl]-2,4-dioxo-1-(3-methyl-1-butyl) -2,3,4,5-tetrahydro-1H-1,5-benzodiazepin-3-yl]-N'-phenylurea]
- pKi CCK-A (CCK-A receptor): 5.48
- Ki (CCK-B receptor; [1]): 4.68 nM

SMILES: COc1ccc(NC(=O)NC2C(=O)N(CCC(C)C)c3ccccc3N(CCN3CCOCC3)C2=O)cc1 (stereo not shown) [Example 4, N-[2,4-Dioxo-1-(3-methyl-1-butyl)-5-[2-(4-morpholino)ethyl]-2,3,4,5-tetrahydro-1H-1,5-benzodiazepin-3-yl]-N'-(4-methoxyphenyl)urea]
- pKi CCK-A (CCK-A receptor): 5.29
- Ki (CCK-B receptor; [1]): 7.94 nM

SMILES: CC(C)CCN1C(=O)C(NC(=O)Nc2ccc(O)cc2)C(=O)N(CCN2CCOCC2)c2ccccc21 (stereo not shown) [Example 5, N-[2,4-Dioxo-1-(3-methyl-1-butyl)-5-[2-(4-morpholinyl)ethyl]-2,3,4,5-tetrahydro-1H-1,5-benzodiazepin-3-yl]-N'-(4-hydroxyphenyl)urea]
- pKi CCK-A (CCK-A receptor): 5.08
- Ki (CCK-B receptor; [1]): 7.41 nM

SMILES: CCN(CC)CCN1C(=O)C(NC(=O)Nc2ccccc2)C(=O)N(CCC(C)C)c2ccccc21 (stereo not shown) [Example 6]
- pKi CCK-A (CCK-A receptor): 5.39
- Ki (CCK-B receptor; [1]): 1.58 nM

SMILES: CN(C)CCN1C(=O)C(NC(=O)Nc2ccccc2)C(=O)N(CC23CC4CC(CC(C4)C2)C3)c2ccccc21 (stereo not shown) [Example 7, N-[1-(1-Adamantylmethyl)-5-[2-(dimethylamino)ethyl]-2,4-dioxo-2,3,4,5-tetrahydro-1H-1,5-benzodiazepin-3-yl]-N'-phenylurea]
- pKi CCK-A (CCK-A receptor): 5.49
- Ki (CCK-B receptor; [1]): 1.29 nM

SMILES: CN(C)CCCN1C(=O)C(NC(=O)Nc2ccccc2)C(=O)N(CC23CC4CC(CC(C4)C2)C3)c2ccccc21 (stereo not shown) [Example 8, N-[1-(1-Adamantylmethyl)-5-[3-(dimethylamino)propyl]-2,4-dioxo-2,3,4,5-tetrahydro-1H-1,5-benzodiazepin-3-yl]-N'-phenylurea]
- pKi CCK-A (CCK-A receptor): 4.69
- Ki (CCK-B receptor; [1]): 3.63 nM

SMILES: O=C(Nc1ccccc1)NC1C(=O)N(CCN2CCOCC2)c2ccccc2N(CC23CC4CC(CC(C4)C2)C3)C1=O (stereo not shown) [Example 9, N-[1-(1-Adamantylmethyl)-2,4-dioxo-5-[2-(4-morpholino)ethyl]-2,3,4,5-tetrahydro-1H-benzodiazepin-3-yl]-N'-phenylurea]
- pKi CCK-A (CCK-A receptor): 5.69
- Ki (CCK-B receptor; [1]): 0.575 nM

SMILES: O=C(Nc1ccccc1)NC1C(=O)N(CCN2CCCC2)c2ccccc2N(CC23CC4CC(CC(C4)C2)C3)C1=O (stereo not shown) [Example 10, N-[1-(1-Adamantylmethyl)-2,4-dioxo-5-[2-(1-pyrrolidino)ethyl]-2,3,4,5-tetrahydro-1H-benzodiazepin-3-yl]-N'-phenylurea]
- pKi CCK-A (CCK-A receptor): 5.02
- Ki (CCK-B receptor; [1]): 1.05 nM

SMILES: N[C@@H](CO)CN1C(=O)C(NC(=O)Nc2ccccc2)C(=O)N(CC23CC4CC(CC(C4)C2)C3)c2ccccc21 (stereo partly drawn) [Example 12, N-[1-(1-Adamantylmethyl)-2,4-dioxo-5-[(3-hydroxy-2(R)amino)propyl]-2,3,4,5-tetrahydro-1H-1,5-benzodiazepin-3-yl]-N'-phenylurea hydrochloride]
- pKi CCK-A (CCK-A receptor): 5.04
- pKi CCK-B (CCK-B receptor; CCK-B receptor, guinea pig cortex assay): 8.18

SMILES: CCN(CC)CCN1C(=O)C(NC(=O)Nc2ccccc2)C(=O)N(CC2CCCCC2)c2ccccc21 (stereo not shown) [Example 13, N-[1-(Cyclohexylmethyl)-2,4-dioxo-5-[(2-diethylamino)ethyl]-2,3,4,5-tetrahydro-1H-1,5-benzodiazepin-3-yl]-N'-phenylurea]
- pKi CCK-A (CCK-A receptor): 5.82
- Ki (CCK-B receptor; [1]): 1.02 nM

SMILES: O=C(Nc1ccccc1)NC1C(=O)N(CCN2CCOCC2)c2cc(F)ccc2N(CC23CC4CC(CC(C4)C2)C3)C1=O (stereo not shown) [Example 14, N-[1-(1-Adamantylmethyl)-2,4-dioxo-7-fluoro-5-[2-(4-morpholino)ethyl]-2,3,4,5-tetrahydro-1H-1,5-benzodiazepin-3-yl]-N'-phenylurea]
- pKi CCK-A (CCK-A receptor): 5.88
- Ki (CCK-B receptor; [1]): 4.37 nM

SMILES: CC(C)CCN1C(=O)C(NC(=O)Nc2ccc(Cl)cc2)C(=O)N(CCN2CCOCC2)c2ccccc21 (stereo not shown) [Example 15, N-[1-(3-methyl-1-butyl)-2,4-dioxo-5-[2-(4-morpholino)ethyl]-2,3,4,5-tetrahydro-1H-benzodiazepin-3-yl]-N'-(4-chlorophenyl)urea]
- pKi CCK-A (CCK-A receptor): 5.99
- Ki (CCK-B receptor; [1]): 1.95 nM

SMILES: CC(C)CCN1C(=O)C(NC(=O)Nc2ccc(C(F)(F)F)cc2)C(=O)N(CCN2CCOCC2)c2ccccc21 (stereo not shown) [Example 16, N-[2,4-Dioxo-1-(3-methyl-1-butyl)-5-[2-(4-morpholino)ethyl]-2,3,4,5-tetrahydro-1H-1,5-benzodiazepin-3-yl]-N'-(4-trifluoromethyl)phenylurea]
- pKi CCK-A (CCK-A receptor): 5.83
- Ki (CCK-B receptor; [1]): 3.63 nM

SMILES: Cc1cccc(NC(=O)NC2C(=O)N(CCN3CCCCCC3)c3ccccc3N(c3ccccc3)C2=O)c1 (stereo not shown) [Example 17, N-[2,4-Dioxo-1-[2-(hexamethyleneimino)ethyl]-5-phenyl-2,3,4,5-tetrahydro-1H-benzodiazepin-3-yl]-N'-(3-tolyl)urea]
- pKi CCK-A (CCK-A receptor): 5.08
- Ki (CCK-B receptor): 2 nM
